Patent publication US3961066A, “6,7-Benzomorphan derivatives” (priority 1973, dated 1976)
Like-named read-outs stand apart in the source and are kept apart here.

Columns and labels:
[1] = Analgesic activity (antagonism of the syndrome produced by intraperitoneal injection of 0.6 % aqueous acetic acid); type: in vivo, mice; conditions: for ED50: Mus musculus; for ED50 / analgesic activity compared with morphine: sc; for analgesic activity compared with pentazocin: s.c., result in words; for analgesic activity compared with morphine: mouse, in vivo
Protocol: Note: The test was based on the specific antagonism of the test compound to the typical syndrome produced by intraperitoneal injection of 0.6 % aqueous acetic acid. The syndrome was characterized by intermittent contractions of the abdomen, twisting and turning of the trunk and extension of the hind legs. A group of 5 mice was used for each dose level. The test compound was administered subcutaneously 20 minutes before the injection of acetic acid. […] The ED50 value was calculated according to the Litchfield-Wilcoxon's method.

[2] = Physical dependency (abstinence syndrome, body weight decrease after withdrawal following 4 weeks of s.c. administration); type: in vivo, male rats of Wistar strain; set-up: key to Abstinence syndrome: ++: severe decrease (about 5 % decrease); ++: moderate decrease; +: mild decrease; -: no decrease; conditions: rats
Protocol: Note: Groups of animals of male rats of Wistar strain (body weight, 150 g), each group consisting of 20 male rats, were subcutaneously given the test compound twice a day for 4 consecutive weeks. On the next day after drug withdrawal, the body weight was measured. The symbols have the following meanings: ++, severe decrease (about 5 % decrease); ++, moderate decrease; +, mild decrease; -, no decrease.

[3] = mice, s.c. 20 minutes before the injection of acetic acid, Litchfield-Wilcoxon's method, read-out: ED50

CC1CN(CCc2ccccc2)C2Cc3ccc(O)cc3C1(C)C2 (stereo not drawn) [2'-hydroxy-2-(β-phenylethyl)-4,5-dimethyl-6,7-benzomorphan]
ED50 [1, 3]: 0.23 mg/kg | analgesic activity compared with pentazocin ([1]; mice): much more potent analgesic activity than pentazocin | analgesic activity compared with morphine [1]: more potent analgesic activity than morphine

CN1CC[C@]23c4c5ccc(O)c4O[C@H]2[C@@H](O)C=C[C@H]3[C@H]1C5 [Morphine, reference compound]
ED50 [1]: 1.2 mg/kg

CC1CN(CCCC(=O)c2ccc(F)cc2)C2Cc3ccc(O)cc3C1(C)C2 (stereo not drawn) [2'-hydroxy-2-[γ-(p-fluorobenzoyl)-n-propyl]-4,5-dimethyl-6,7-benzomorphan]
ED50 [1, 3]: 0.36 mg/kg | analgesic activity compared with pentazocin ([1]; mice): much more potent analgesic activity than pentazocin | analgesic activity compared with morphine [1]: more potent analgesic activity than morphine | Abstinence syndrome ([2]; s.c., 40 mg/kg/day for 4 weeks, twice a day, body weight measured on the next day after drug withdrawal): - | physical dependency ([2]; subcutaneously, everyday for 4 weeks, result in words): did not produce any physical dependency
